Measurements as given in patent publication EP0324875A1 (priority 1988, dated 1989).
Where two headings read alike, the source gives them in different places.

Columns and labels:
[1] = DD-13 18,7 mg/kg
Virus FPV = experiment: organism not typed; assay type: cell-based, Grippe-Virus A/H7N7/; conditions: 72 h; for Inhibitionsprozent (Verminderung der Plaquebildung): Zellen EHF
[2] = system: Virus FPV (Stamm Weibridge); assay type: cell-based, Grippe-Virus A/H7N7/; conditions: for inf. Titer in PBE/ml / XA-Titer: MOI = 0,5
Grippe-Virus B/Lii = experiment: One-cycle test, virus yield in calf kidney cell culture; assay type: cell-based; conditions: MOI = 1
Source text: Bei den Mehrcyclen- und Eincyclustests werden einschichtige Zellkulturen einer embryonalen Kalbsniere verwendet, welche mit Grippe-Viren A/H3N2/Texas/77 und B/Lii/MOI = 0.01-0.5 und 1-10 entsprechend infiziert werden. Die Ausbeute an infektiösem und hämaglutinierendem Virus wird in der 24sten Stunde (bei einem Mehrcyclentest) und entsprechend in der zwölften bis fünfzehnten Stunde (bei einem Eincyclustest) ausgerechnet. Der infektiöse Titer wird EID₅₀/ml bestimmt. Dieselben Versuche werden auch mit Virus FPV (Stamm Weibridge) in Zellen EHF(bei Ausrechnung des infektiösen Virus Plaque-bildenden Einheiten und des hämaglutinierenden Virus) durchgeführt. Die Wirksamkeit der Verbindungen wird im Bezug auf die Kontrolle (ohne Inhibitoren) ausgerechnet.

[3] = read-out: Inhibitionsprozent (Verminderung der Plaquebildung)

## O=C1NCCCN1CN1CCOCC1 [DD-13]
[1]
  dose as fraction of LD50: 1/213
Virus FPV; [3]
  inhibition at 10 µM: 2.3%
  inhibition at 30 µM: 15.2%
  inhibition at 100 µM: 34.3%
  inhibition at 300 µM: 85%
  inhibition at 1000 µM: 99.2%
Virus FPV; DD-13 3x10^-4 M/1 alone
  Inhibitionsprozent (Verminderung der Plaquebildung): 85,00%
[2]; 60 mkg/ml DD-13 alone
  Verminderung der Ausbeute des hämaglutivierenden Virus (fold): viermalige
[2]; DD-13 15 mkg/ml alone, control without inhibitors 1.7x10^7
  inf. Titer in PBE/ml: 5x10^6 PBE/ml
[2]; DD-13 15 mkg/ml alone, control without inhibitors 2048
  XA-Titer: 1024
[2]; DD-13 30 mkg/ml alone, control 1.7x10^7
  inf. Titer in PBE/ml: 6,9x10^6 PBE/ml
[2]; DD-13 30 mkg/ml alone, control 2048
  XA-Titer: 512
[2]; DD-13 60 mkg/ml alone, control 1.7x10^7
  inf. Titer in PBE/ml: 3,9x10^6 PBE/ml
[2]; DD-13 60 mkg/ml alone, control 2048
  XA-Titer: 256
Grippe-Virus B/Lii; DD-13 12,5 (unit not given) alone, control without inhibitors 6,3
  inf. Titer in log. EID50/ml: 4,0 log. EID50/ml
Grippe-Virus B/Lii; DD-13 12,5 (unit not given) alone, control without inhibitors 8
  XA-Titer: 8
Grippe-Virus B/Lii; DD-13 25 (unit not given) alone, control 6,3
  inf. Titer in log. EID50/ml: 2,5 log. EID50/ml
Grippe-Virus B/Lii; DD-13 25 (unit not given) alone, control 8
  XA-Titer: 4
Grippe-Virus B/Lii; DD-13 50 (unit not given) alone, control 6,3
  inf. Titer in log. EID50/ml: 2,0 log. EID50/ml
Grippe-Virus B/Lii; DD-13 50 (unit not given) alone, control 8
  XA-Titer: 4

## CC(N)C12CC3CC(CC(C3)C1)C2 (stereo not drawn) [Rimantadin, reference compound]
Virus FPV; [3]
  inhibition at 0.0001 µM: 3.52%
  inhibition at 0.001 µM: 18.4%
  inhibition at 0.01 µM: 48%
Virus FPV; Rimantadin 10^-9 M/1 alone
  Inhibitionsprozent (Verminderung der Plaquebildung): 18,37 ± 14,19%
[2]; 5 mkg/ml Rimantadin alone
  Verminderung der Ausbeute des hämaglutivierenden Virus (fold): 64
[2]; Rim. 1 mkg/ml alone, control 1.7x10^7
  inf. Titer in PBE/ml: 4,2x10^4 PBE/ml
[2]; Rim. 1 mkg/ml alone, control 2048
  XA-Titer: 32
[2]; Rim. 5 mkg/ml alone, control 1.7x10^7
  inf. Titer in PBE/ml: 4,4x10^4 PBE/ml
[2]; Rim. 5 mkg/ml alone, control 2048
  XA-Titer: 32
Grippe-Virus B/Lii; Rim. 5 mkg/ml alone, control 6,3
  inf. Titer in log. EID50/ml: 6,0 log. EID50/ml
Grippe-Virus B/Lii; Rim. 5 mkg/ml alone, control 8
  XA-Titer: 4
Grippe-Virus B/Lii; Rim. 25 mkg/ml alone, control 6,3
  inf. Titer in log. EID50/ml: 4,7 log. EID50/ml
Grippe-Virus B/Lii; Rim. 25 mkg/ml alone, control 8
  XA-Titer: 4
